Where a name gives a salt, the structure may show the parent alone.
Test: Visual aqueous solubility
Format: physicochemical
Conditions: water added in portions to ~10 mg, assessed visually after brief equilibration
Procedure: The salts and free base (˜10 mg) were weighed into glass vials and water was added in 0.1 mL portions up to 3 mL and 1 mL portions thereafter. Solubility was assessed visually following a brief period of equilibration.

Visual aqueous solubility (listed as Free base) [µg/mL]	Visual aqueous solubility [µg/mL]	SMILES
<500	–	CC(=O)Nc1nnc(N2CCN([C@@H](C)c3ccc4c(c3)OCO4)CC2)s1 [Example 69, (S)—N-(5-(4-(1-(benzo[d][1,3]dioxol-5-yl)ethyl)piperazin-1-yl)-1,3,4-thiadiazol-2-yl)acetamide]
–	~4500	CC(=O)Nc1nnc(N2CCN([C@@H](C)c3ccc4c(c3)OCO4)CC2)s1 [Hydrochloride salt, (S)—N-(5-(4-(1-(benzo[d][1,3]dioxol-5-yl)ethyl)piperazin-1-yl)-1,3,4-thiadiazol-2-yl)acetamide]
–	~20000	CC(=O)Nc1nnc(N2CCN([C@@H](C)c3ccc4c(c3)OCO4)CC2)s1 [L-Tartrate salt, (S)—N-(5-(4-(1-(benzo[d][1,3]dioxol-5-yl)ethyl)piperazin-1-yl)-1,3,4-thiadiazol-2-yl)acetamide]
–	~4500	CC(=O)Nc1nnc(N2CCN([C@@H](C)c3ccc4c(c3)OCO4)CC2)s1 [Maleate salt, (S)—N-(5-(4-(1-(benzo[d][1,3]dioxol-5-yl)ethyl)piperazin-1-yl)-1,3,4-thiadiazol-2-yl)acetamide]
